Test results from US20070048385A1, “Microcapsules by coacervation containing a pharmaceutical incorporated in the coating polymer” (priority 2003, published 2007).

What was measured:
[1] = Dissolution test at pH 6.8 according to USP 26; assay type: physicochemical
Procedure: A dissolution test is carried out on the microcapsules thus obtained comparing them with anhydrous theophylline in crystalline form.
The dissolution test was performed according to USP 26.
A dissolution test is carried out on the microcapsules obtained in Examples 5 and 6 according to the method previously described for Example 4
Dissolution test was performed according to USP 26
A dissolution test is carried out on the microcapsules thus obtained compared to fluoxetine raw material.

[2] = Dissolution test at pH 1.2 according to USP 26; assay type: physicochemical; details: caffeine
Procedure: The microcapsules obtained, when analysed with an electronic microscope (FIG. 3), show a distribution of the particles of the active principle within the polymeric membrane in the form of solid particles that are prevalently disposed at the interface between the polymer and the core. […] Dissolution test was performed according to USP 26.

With CNCCC(Oc1ccc(C(F)(F)F)cc1)c1ccccc1 (stereo not shown) [Fluoxetine] the “Dissolution % at pH 6.8, 5 min” value ([1]; fluoxetine) was 55%, the “Dissolution % at pH 6.8, 10 min” value ([1]; fluoxetine) was 75% and the “Dissolution % at pH 6.8, 20 min” value ([1]; 20 min, fluoxetine) was 100%.

In the case of Cn1c(=O)c2[nH]cnc2n(C)c1=O [Anhydrous Theophylline], the “Dissolution % at pH 6.8, 5 min” value ([1]; theophylline) is reported as 65%, the “Dissolution % at pH 6.8, 10 min” value ([1]; theophylline, T2 second head) is reported as 100% and the “Dissolution % at pH 6.8, 15 min” value ([1]; 15 min, theophylline) is reported as 100%.

In the case of Cn1c(=O)c2c(ncn2C)n(C)c1=O [Caffeine], the “Dissolution % at pH 1.2, 60 min” value [2] is reported as 100%.
